These results are taken from ChEMBL document CHEMBL5226375, “Synthesis and Comprehensive in Vivo Activity Profiling of Olean-12-en-28-ol, 3β-Pentacosanoate in Experimental Autoimmune Encephalomyelitis: A Natural Remyelinating and Anti-Inflammatory Agent” (J Nat Prod, 2023).

Activity calls are given as the source filed them. No cut-off for these calls is given here.

Series [1] has as its system Mus musculus. Nature of the series: Anti-inflammatory activity against MOG35-55-induced experimental autoimmune encephalomyelitis C57BL/6 mouse model assessed as reduction in MMP9 protein expression in brain at 300 to 600 mg/kg/day, ig for 14 days starting from 12th day of immunization by western blot analysis relative to control. Type of series: functional. The conditions noted are these: dose 300-600 mg/kg/day, time 14 day.

Series [2] can be described thus: Stability of the compound in THF/phosphate buffer at pH 2.5 incubated for 2 hrs under stirring conditions by 1H-NMR analysis. Type of series: physicochemical. The following applies: pH 2.5, 2 h.
Series [3] has as its system Mus musculus. Nature of the series: Anti-inflammatory activity against MOG35-55-induced experimental autoimmune encephalomyelitis C57BL/6 mouse model assessed as methylation of CpG sites of IL11 gene promoter in brain at 600 mg/kg, ig for 14 days starting from 12th day of immunization by PCR analysis (reference value: 61.1 +/-4%). Type of series: functional. The following applies: time 14 day.

Series [4] concerns Mus musculus. In words: Anti-inflammatory activity against MOG35-55-induced experimental autoimmune encephalomyelitis C57BL/6 mouse model assessed as increase in brain IL-10 level at 600 mg/kg/day, ig for 14 days starting from 12th day of immunization by ELISA. Type of series: functional, organism-based. The following applies: time 14.0 day.
The subject of series [5] is Mus musculus. Nature of the series: Anti-inflammatory activity against MOG35-55-induced experimental autoimmune encephalomyelitis C57BL/6 mouse model assessed as reduction in IL-6 protein expression in brain at 300 to 600 mg/kg/day, ig for 14 days starting from 12th day of immunization by western blot analysis. Type of series: functional, organism-based. The conditions noted are these: dose 300-600 mg/kg/day, time 14.0 day.

Series [6] has as its system Mus musculus. In words: Anti-inflammatory activity against MOG35-55-induced experimental autoimmune encephalomyelitis C57BL/6 mouse model assessed as fold change in CD4 gene expression in brain at 600 mg/kg/day, ig for 14 days starting from 12th day of immunization by RT-qPCR analysis relative to control. The class given is functional. The conditions noted are these: time 14 day.

The subject of series [7] is Mus musculus. Nature of the series: Anti-inflammatory activity against MOG35-55-induced experimental autoimmune encephalomyelitis C57BL/6 mouse model assessed as reduction in serum Th1 cytokine level by measuring reduction in IFNG level at 600 mg/kg/day, ig for 14 days starting from 12th day of immunization by ELISA. The class given is functional, organism-based. The following applies: time 14.0 day.

Series [8] concerns Mus musculus. In words: Anti-inflammatory activity against MOG35-55-induced experimental autoimmune encephalomyelitis C57BL/6 mouse model assessed as fold change in GFAP gene expression in brain at 600 mg/kg/day, ig for 14 days starting from 12th day of immunization by RT-qPCR analysis relative to control. Type of series: functional. The following applies: time 14 day.
Series [9] concerns Mus musculus. In words: Anti-inflammatory activity against MOG35-55-induced experimental autoimmune encephalomyelitis C57BL/6 mouse model assessed as methylation of CpG sites of IL10RA gene promoter in brain at 600 mg/kg, ig for 14 days starting from 12th day of immunization by PCR analysis (reference value: 34.9 +/-4%). The class given is functional. The conditions noted are these: time 14 day.

Series [10] deals with Mus musculus. Nature of the series: Anti-inflammatory activity against MOG35-55-induced experimental autoimmune encephalomyelitis C57BL/6 mouse model assessed as reduction in TGB1 protein expression in brain at 300 to 600 mg/kg/day, ig for 14 days starting from 12th day of immunization by western blot analysis. Type of series: functional, organism-based. The conditions noted are these: dose 300-600 mg/kg/day, time 14.0 day.

For series [11], the system named is Mus musculus. Nature of the series: Anti-inflammatory activity against MOG35-55-induced experimental autoimmune encephalomyelitis C57BL/6 mouse model assessed as methylation of CpG sites of IL13 gene promoter in brain at […], ig for 14 days starting from 12th day of immunization by PCR analysis (reference value: 57.3 +/-8%). The following applies: time 14 day. Type of series: functional.

Series [12] has as its system Mus musculus. In words: Anti-inflammatory activity against MOG35-55-induced experimental autoimmune encephalomyelitis C57BL/6 mouse model assessed as methylation of CpG sites of TGFB1 gene promoter in brain at […], ig for 14 days starting from 12th day of immunization by PCR analysis (reference value: 18.3 +/-4%). Type of series: functional. The conditions noted are these: time 14 day.

As for `CCCCCCCCCCCCCCCCCCCCCCCCC(=O)O[C@H]1CC[C@]2(C)[C@H]3CC=C4[C@@H]5CC(C)(C)CC[C@]5(CO)CC[C@@]4(C)[C@]3(C)CC[C@H]2C1(C)C`, the “fold change (FC)” value in the series with Mus musculus [1] was 2; in the series on Mus musculus [6], 1.55; with Mus musculus [8], 1.79. Besides, the Stability entry in series [2] is reported as “Stable”. The figures for the Activity in the series with Mus musculus [3] and in the series on Mus musculus [9] were 41.4% and 32%, respectively. Moreover, the result in the series with Mus musculus [4], in the series on Mus musculus [5], in the series on Mus musculus [7] and in the series with Mus musculus [10] was Active.

Take `CCCCCCCCc1ccc(CCC(N)(CO)CO)cc1` [FINGOLIMOD]: the Activity came out at 33.1% in the series with Mus musculus [11] and 35.1% in the series on Mus musculus [12].
